pIC50: −log10 of the molar value.
Target: T1, human LFA-1 (Homo sapiens, UniProt P20701)
T1 construct: endogenous in cells; host or cells: JY cells (human lymphoblastoid B cell line); The ICAM-1 fusion partner is made in the baculovirus system
Assay: In vitro cell free assay: binding of soluble human ICAM-1 to immobilized human LFA-1
Conditions: immobilized human LFA-1, biotinylated recombinant ICAM-1, read-out: IC50, inhibition of adhesion of LFA-1 to ICAM-1
Procedure: A. In Vitro TEST SYSTEM (Cell Free Assay)
The assay determines the binding of soluble human ICAM-1 to immobilized human LFA-1. LFA-1 is purified from JY cells, a human lymphoblastoid B cell-line, by immunoaffinity chromatography analogously as described by Dustin et al., J. Immunol. 148, 2654-2663, 1992. ICAM-1 mouse Cκ fusion protein (ICAM-1) is produced using the baculovirus system as described by Weitz-Schmidt et al., Anal. Biochem. 238, 184-190, 1996.
Purified LFA-1 is diluted 1:20 in phosphate buffered saline (PBS) containing 2 mM MgCl2, pH 7.4 and coated onto microtiter plates (Nunc) at 37° for 3 hours. Plates are blocked with 1% heat-treated bovine serum albumin in PBS for 2 hours at 37° followed by a washing step using PBS, 2 mM MgCl2, 1% fetal calf serum, pH 7.4 (assay buffer). Compounds of the present invention (10 mM solution in DMSO) are diluted in assay buffer and added to the plates. Biotinylated recombinant ICAM-1 in assay buffer (6 μg/ml) is added and allowed to bind at 37° for one hour. After incubation, wells are washed with assay buffer. Streptavidinperoxidase diluted 1:5000 in assay buffer is added and incubated for 45 min at 37°. […] The reaction is stopped after 20 minutes and bound ICAM-1 is determined by measuring the optical density at 405 nm in a microplate reader.

T1 sequence (P20701 26-1170): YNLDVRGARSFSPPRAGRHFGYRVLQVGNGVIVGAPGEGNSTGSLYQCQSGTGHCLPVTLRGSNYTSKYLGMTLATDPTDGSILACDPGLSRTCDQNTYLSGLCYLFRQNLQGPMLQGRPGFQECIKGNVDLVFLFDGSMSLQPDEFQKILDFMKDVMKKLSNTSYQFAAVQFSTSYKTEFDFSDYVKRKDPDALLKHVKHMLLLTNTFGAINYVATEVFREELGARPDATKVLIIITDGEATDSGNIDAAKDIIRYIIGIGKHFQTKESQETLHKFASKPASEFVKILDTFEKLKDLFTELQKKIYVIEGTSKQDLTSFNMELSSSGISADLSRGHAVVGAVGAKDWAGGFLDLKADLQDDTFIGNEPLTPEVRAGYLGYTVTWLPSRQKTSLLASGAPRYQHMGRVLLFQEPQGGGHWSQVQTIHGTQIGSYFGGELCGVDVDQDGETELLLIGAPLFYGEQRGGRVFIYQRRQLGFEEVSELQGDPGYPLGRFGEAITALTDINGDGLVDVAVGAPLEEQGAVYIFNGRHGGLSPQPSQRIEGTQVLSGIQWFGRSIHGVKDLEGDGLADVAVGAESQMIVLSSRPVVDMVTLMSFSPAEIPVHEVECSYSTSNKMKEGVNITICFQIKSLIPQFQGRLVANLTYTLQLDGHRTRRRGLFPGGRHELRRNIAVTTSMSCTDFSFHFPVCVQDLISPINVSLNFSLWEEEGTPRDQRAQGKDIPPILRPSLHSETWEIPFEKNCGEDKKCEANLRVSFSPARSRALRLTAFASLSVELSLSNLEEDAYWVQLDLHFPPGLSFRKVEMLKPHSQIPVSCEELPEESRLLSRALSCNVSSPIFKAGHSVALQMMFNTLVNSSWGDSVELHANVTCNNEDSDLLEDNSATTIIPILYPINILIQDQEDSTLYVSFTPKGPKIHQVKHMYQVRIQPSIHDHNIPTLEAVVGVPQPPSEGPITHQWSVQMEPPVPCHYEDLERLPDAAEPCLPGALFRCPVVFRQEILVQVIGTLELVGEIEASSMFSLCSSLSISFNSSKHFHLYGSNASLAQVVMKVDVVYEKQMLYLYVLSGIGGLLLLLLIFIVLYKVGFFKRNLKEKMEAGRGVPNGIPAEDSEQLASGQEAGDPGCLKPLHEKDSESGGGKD
T1 sequence (P05107 23-769 partner): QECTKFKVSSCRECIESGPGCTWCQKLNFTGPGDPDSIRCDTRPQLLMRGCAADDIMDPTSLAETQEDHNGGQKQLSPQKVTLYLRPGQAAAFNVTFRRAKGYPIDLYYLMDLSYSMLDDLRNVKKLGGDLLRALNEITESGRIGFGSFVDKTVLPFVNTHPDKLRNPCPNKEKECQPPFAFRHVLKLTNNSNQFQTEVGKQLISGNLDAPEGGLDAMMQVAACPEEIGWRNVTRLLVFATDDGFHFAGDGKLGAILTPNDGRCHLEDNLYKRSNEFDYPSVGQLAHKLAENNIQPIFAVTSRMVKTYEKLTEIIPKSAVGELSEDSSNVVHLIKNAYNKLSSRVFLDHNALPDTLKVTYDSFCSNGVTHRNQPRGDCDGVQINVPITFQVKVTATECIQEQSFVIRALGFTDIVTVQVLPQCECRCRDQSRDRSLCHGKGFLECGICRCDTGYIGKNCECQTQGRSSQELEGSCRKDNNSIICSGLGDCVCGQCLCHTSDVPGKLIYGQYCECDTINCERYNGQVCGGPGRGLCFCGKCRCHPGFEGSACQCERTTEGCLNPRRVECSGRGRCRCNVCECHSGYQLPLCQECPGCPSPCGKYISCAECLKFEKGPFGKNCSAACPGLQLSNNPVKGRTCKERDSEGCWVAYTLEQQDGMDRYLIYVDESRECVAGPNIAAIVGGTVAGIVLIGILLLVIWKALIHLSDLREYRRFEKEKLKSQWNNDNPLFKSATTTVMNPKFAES

SMILES | pIC50
C[C@@H]1CCN([C@H](Cc2cccc3ccccc23)C(N)=O)C(=O)[C@H](c2cccc(Cl)c2)N1C(=O)CNC(=O)c1ccccc1 [Example 13, N-{2-[(2S,7R)-4-((R)-1-Carbamoyl-2-naphthalen-1-yl-ethyl)-2-(3-chloro-phenyl)-7-methyl-3-oxo-[1,4]diazepan-1-yl]-2-oxo-ethyl}-benzamide] | 6.37
C[C@@H]1CCN([C@H](Cc2cccc3ccccc23)C(N)=O)C(=O)[C@H](c2cccc(Cl)c2)N1C(=O)CNC(=O)[C@@H]1CCCN1 [Example 14, (S)-Pyrrolidine-2-carboxylic acid {2-[(2S,7R)-4-((R)-1-carbamoyl-2-naphthalen-1-yl-ethyl)-2-(3-chloro-phenyl)-7-methyl-3-oxo-[1,4]diazepan-1-yl]-2-oxo-ethyl}-amide] | 7.05
